The record followed here is article PMC7023064, “Design, Synthesis, and Evaluation of Novel 2-Methoxyestradiol Derivatives as Apoptotic Inducers through an Intrinsic Apoptosis Pathway” (Biomolecules, 2020).

Data set [1] has as its system MCF-7 cells. Description: Hoechst 33258 staining. The class given is cell-based, human. As to conditions: 0, 5, 10, and 20 μM, 72 h; at higher concentrations. The method, then:
The nuclear morphological changes and apoptotic effects induced by compound 11/12a were detected using Hoechst 33,258 staining. Cells grown on a sterile cover slip were treated with 11/12a for 72 h in six-well tissue culture plates. Cells were collected and mounted on a slide, fixed for 30 min with 4% paraformaldehyde, and washed three times with PBS. Then, cells were stained with Hoechst 33,258 (2 mg/mL in PBS) for 10 min at room temperature in the dark. The cells were subsequently washed three times with PBS and observed with a fluorescence microscope.

For data set [2], the system named is normal human liver L-O2 cell lines. Kind of data set: MTT cytotoxicity assay, L-O2. The class given is cell-based. As to conditions: mean ± SD of three experiments, No = No inhibition detected. The method, then:
Human breast adenocarcinoma MCF-7 cell lines, human breast cancer MDA-MB-231 cell lines, and the normal human liver L-O2 cell lines were provided by Nanjing KeyGen Biotech Co. Ltd. (Nanjing, China). MCF-7 cells were cultured in a base medium (90% RPMI-1640 and 10% FBS) at 37 °C, 5% CO2 and a saturated humidity atmosphere. MDA-MB-231 cells were cultured in a base medium (90% […] and 10% FBS) at 37 °C, 5% CO2 and a saturated humidity atmosphere. L-O2 cells were cultured in a base medium (90% DMEM and 10% FBS) at 37 °C, 5% CO2 and a saturated humidity atmosphere.
The cytotoxicity of the tested compounds was determined using the 3-(4,5-dimethyl-2-thiazolyl)-2,5-diphenyl-2-H-tetrazolium bromide (MTT) assay. Cells were seeded in 96-well plates and incubated in a 5% CO2 incubator at 37 °C. When the cells adhered, compounds at different concentrations were added to every well. After incubation for another 72 h, MTT solution (5 mg/mL) was added into each well and cells were incubated for an additional 4 h. The viable cells were stained with MTT and scanned with an electrophotometer at 570 nm. Each concentration treatment was done in triplicate wells. The half maximal inhibitory concentration (IC50) values were estimated by fitting the inhibition data to a dose-dependent curve using a logistic derivative equation.
For orientation: Formazan colour is commonly taken as a measure of viable cells.

In data set [3] the test system is MCF-7 cells. Kind of data set: Mitochondrial membrane potential analysis (JC-1, flow cytometry). The class given is cell-based, human. As to conditions: 72 h, JC-1 (lower right quadrant). The method, then: MCF-7 cells were incubated in triplicate and treated with compound 11/12a for 72 h. The cells were washed with PBS and stained with JC-1 dye (Keygen, KGA601) under dark conditions according to the manufacturer’s instructions. After incubation, the cells were washed twice with PBS, and the percentage of cells with collapsed or healthy mitochondrial membrane potentials (MMP) was monitored by flow cytometry analysis (FACS Calibur Becton-Dickinson, San Jose, California, USA).
(In flow cytometry, cells or beads pass a laser one at a time.)

One may read the IC50 as the concentration at which inhibition is half-maximal. The low end stands for greater potency, the high end for weaker potency. For orientation: melting point means the temperature, or range, at which the solid turns liquid.

As for “17 β-[6-(Uracil-3-yl)-Hexyloxy]-2-Methoxy-Estra-1,3,5(10)-Triene-3-ol [Compound 12a]”, in the data set with MCF-7 cells [1], the “Hoechst 33258 fluorescence / cell morphology” value is “stronger blue fluorescence”. In addition, the IC50 in data set [2] (72 h) stood at 69.3 ± 4.37 µM. Besides, the “MCF-7 cells with collapsed MMP” value was 8.78% in the data set on MCF-7 cells [3] (5 μM), 14.56% with MCF-7 cells [3] (10 μM) and 39.75% in the data set on MCF-7 cells [3] (20 μM).

In turn, `COc1cc2c(cc1O)CC[C@@H]1[C@@H]2CC[C@]2(C)[C@@H](OCCCCCCCCn3c(=O)ccn([C@@H]4O[C@H](CO)[C@@H](O)[C@H]4O)c3=O)CC[C@@H]12` [Compound 11, 17 β-[8-(1-β-D-Ribofuranosyluracil-3-yl)-Octyloxy]-2-Methoxy-Estra-1,3,5(10)-Triene-3-ol] yielded a melting point of 95 to 96 °C. Besides, in the data set on MCF-7 cells [1], the “Hoechst 33258 fluorescence / cell morphology” value was “stronger blue fluorescence”. For the same compound, the IC50 in data set [2] (Homo sapiens, L02, 72 h) was > 100 µM. The “MCF-7 cells with collapsed MMP” value in the data set with MCF-7 cells [3] (5 μM) was 7.95%. Besides, the “MCF-7 cells with collapsed MMP” value in the data set with MCF-7 cells [3] (10 μM) is listed as 14.13%. Moreover, the “MCF-7 cells with collapsed MMP” value in the data set with MCF-7 cells [3] (20 μM) stood at 38.88%.
